The values that follow come from US20080139484A1, “1(Beta-D-Glycopyranosyl)-3-Substituted Nitrogenous Heterocyclic Compound, Medicinal Composition Containing the Same, and Medicinal Use Thereof” (KISSEI PHARMACEUTICAL CO., LTD., priority 2004, published 2008).

What is called IC50 is the concentration that inhibits the measured activity by half. The low end stands for inhibition by little substance, the high end for a need for much substance.

Assay [1] addresses T1, human SGLT1 (Homo sapiens, UniProt P13866).
T1 construct: expressed in transfected cells; host or cells: COS-7 cells, transient lipofection (Lipofectamine-2000) of pcDNA3.1(-) vector
T1 sequence (P13866 1-664): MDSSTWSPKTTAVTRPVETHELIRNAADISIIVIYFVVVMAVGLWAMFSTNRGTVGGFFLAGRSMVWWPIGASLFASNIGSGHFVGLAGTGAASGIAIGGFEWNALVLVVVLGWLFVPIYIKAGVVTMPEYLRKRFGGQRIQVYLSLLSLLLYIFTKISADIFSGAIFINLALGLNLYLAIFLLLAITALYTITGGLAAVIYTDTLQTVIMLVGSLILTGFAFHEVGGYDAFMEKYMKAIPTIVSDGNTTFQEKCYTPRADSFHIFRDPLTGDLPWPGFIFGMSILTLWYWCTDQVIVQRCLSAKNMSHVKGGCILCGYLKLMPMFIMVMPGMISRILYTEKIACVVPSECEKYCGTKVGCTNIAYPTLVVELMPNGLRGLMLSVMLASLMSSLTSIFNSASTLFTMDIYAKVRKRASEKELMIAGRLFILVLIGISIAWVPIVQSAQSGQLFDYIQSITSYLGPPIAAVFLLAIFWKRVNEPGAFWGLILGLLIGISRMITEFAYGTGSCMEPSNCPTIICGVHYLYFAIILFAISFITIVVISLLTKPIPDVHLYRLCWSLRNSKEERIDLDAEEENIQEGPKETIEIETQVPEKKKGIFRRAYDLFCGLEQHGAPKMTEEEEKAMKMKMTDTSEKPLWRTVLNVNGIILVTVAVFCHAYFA
In words: Inhibition of methyl-α-D-glucopyranoside (α-MG) uptake in COS-7 cells expressing human SGLT1. The class given is cell-based. Conditions: COS-7 cells expressing human SGLT1, 1 mM α-MG, 1 hour incubation at 37° C. The protocol:
(§1) Assay for Inhibitory Effects on Human SGLT Activity
The cDNA library was prepared for PCR amplification by reverse transcription from total RNA deprived from human small intestine (Ori gene) using oligo-dT as a primer. Using this cDNA library as a template, the DNA fragment coding 1 to 2005 bp of human SGLT1 (ACCESSION: M24847), which was reported by Hediger et al., was amplified by PCR method and inserted into the multi-cloning site of pcDNA3.1(−) (Invitrogen). The DNA sequence inserted was perfectly matched to the previously reported sequence.
(§2) The vector expressing human SGLT1 or SGLT2 was transfected into COS-7 cells by lipofection method (Lipofectamine-2000: Invitrogen). First, COS-7 cells were plated 5×10^4 cells/100 μL/well on 96-wells plate and incubated at 37° C. for 2 hours. In addition, per 50 μL medium, 0.3 μg of human SGLT1 or SGLT2 expression vector was mixed with 0.5 μL of Lipofectamine-2000 and the complex solution was prepared. Fifty μL/well of this complex solution was added to COS-7 cells, previously described, and the plate was mixed gently and was used for uptake assay after 2 days culture.
A mixture of non-labeled (Sigma) and ^14C-labeled α-MG (Amersham Pharmacia Biotech) was added to the uptake buffer (pH 7.4; containing 140 mM sodium chloride, 2 mM potassium chloride, 1 mM calcium chloride, 1 mM magnesium chloride, 10 mM 2-[4-(2-hydroxyethyl)-1-piperazinyl]ethane sulfonic acid and 5 mM tris(hydroxymethyl)aminomethane) at the final concentration of 1 mM. A test compound was dissolved in dimethyl sulfoxide, and then appropriately diluted with distilled water. The test compound solution was added to the uptake buffer containing 1 mM α-MG, and designated as a measurement buffer. For the control group, the measurement buffer without any test compound was prepared. For measuring the basal uptake, a basal uptake measurement buffer, which contains 140 mM chorine chloride instead of sodium chloride, was prepared. After removing the culture medium of cells expressing human SGLT1 or human SGLT2, 180 μL of the pre-treatment buffer (the basal uptake buffer without α-MG) was added to each well and incubated at 37° C. for 10 minutes. After repeating the same treatment, the pre-treatment buffer was removed, and then 75 μL per well of the measurement buffer or the basal uptake buffer was added and the cells were incubated at 37° C. […] Radioactivity was measured by means of micro-scintillation counter TopCount (Packard). One hundred % was set to the difference between the uptake in the control group and the basal uptake, and the uptake of methyl α-D-glucopyranoside at each drug concentration was calculated. […]

Assay [2] concerns the target T2, human SGLT2 (Homo sapiens, UniProt P31639).
T2 construct: expressed in transfected cells; host or cells: COS-7 cells, transient lipofection (Lipofectamine-2000) of pcDNA3.1(-) vector
T2 sequence (P31639 1-672): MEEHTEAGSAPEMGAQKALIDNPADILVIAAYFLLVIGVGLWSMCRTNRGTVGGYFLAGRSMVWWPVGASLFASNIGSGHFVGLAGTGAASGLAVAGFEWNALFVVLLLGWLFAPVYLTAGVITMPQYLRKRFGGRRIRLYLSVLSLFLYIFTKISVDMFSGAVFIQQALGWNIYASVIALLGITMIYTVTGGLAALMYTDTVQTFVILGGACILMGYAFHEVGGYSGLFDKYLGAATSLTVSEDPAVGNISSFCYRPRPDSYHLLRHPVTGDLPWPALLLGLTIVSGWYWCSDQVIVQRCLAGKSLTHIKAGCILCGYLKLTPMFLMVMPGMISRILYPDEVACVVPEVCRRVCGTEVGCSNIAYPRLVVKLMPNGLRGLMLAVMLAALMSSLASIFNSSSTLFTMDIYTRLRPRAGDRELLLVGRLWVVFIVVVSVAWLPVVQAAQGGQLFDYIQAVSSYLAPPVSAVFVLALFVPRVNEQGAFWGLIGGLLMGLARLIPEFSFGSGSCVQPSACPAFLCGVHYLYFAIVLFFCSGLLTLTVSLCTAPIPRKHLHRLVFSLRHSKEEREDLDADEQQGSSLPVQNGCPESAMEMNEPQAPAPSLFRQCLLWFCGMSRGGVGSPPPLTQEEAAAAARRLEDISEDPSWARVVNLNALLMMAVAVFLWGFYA
In words: Inhibition of methyl-α-D-glucopyranoside (α-MG) uptake in COS-7 cells expressing human SGLT2. The class given is cell-based. Conditions: COS-7 cells expressing human SGLT2, 1 mM α-MG, 1 hour incubation at 37° C. The protocol:
as §1
The cDNA library was prepared for PCR amplification by reverse transcription from total RNA deprived from human kidney (Ori gene) using oligo-dT as a primer. Using this cDNA library as a template, the DNA fragment coding 2 to 2039 bp of human SGLT2 (ACCESSION: M95549, M95299), which was reported by R. G. Wells et al., was amplified by PCR method and inserted into the multi-cloning site of pcDNA3.1(−) (Invitrogen). The DNA sequence inserted was perfectly matched to the previously reported sequence.
as §2
A mixture of non-labeled (Sigma) and ^14C-labeled α-MG (Amersham Pharmacia Biotech) was added to the uptake buffer (pH 7.4; containing 140 mM sodium chloride, 2 mM potassium chloride, 1 mM calcium chloride, 1 mM magnesium chloride, 10 mM 2-[4-(2-hydroxyethyl)-1-piperazinyl]ethane sulfonic acid and 5 mM tris(hydroxymethyl)aminomethane) at the final concentration of 1 mM. A test compound was dissolved in dimethyl sulfoxide, and then appropriately diluted with distilled water. The test compound solution was added to the uptake buffer containing 1 mM α-MG, and designated as a measurement buffer. For the control group, the measurement buffer without any test compound was prepared. For measuring the basal uptake, a basal uptake measurement buffer, which contains 140 mM chorine chloride instead of sodium chloride, was prepared. After removing the culture medium of cells expressing human SGLT1 or human SGLT2, 180 μL of the pre-treatment buffer (the basal uptake buffer without α-MG) was added to each well and incubated at 37° C. for 10 minutes. After repeating the same treatment, the pre-treatment buffer was removed, and then 75 μL per well of the measurement buffer or the basal uptake buffer was added and the cells were incubated at 37° C. After 1 hour incubation, the measurement buffer was removed and the cells were washed twice with 180 μL per well of the washing buffer (the basal uptake buffer containing 10 mM non-labeled α-MG). The cells were solubilized by 75 μL per well of 0.2 mol/L sodium hydroxide, and then the cell lysates were transferred into PicoPlates (Packard). One hundred fifty μL of Microscint-40 (Packard) was added to the wells and mixed. Radioactivity was measured by means of micro-scintillation counter TopCount (Packard). One hundred % was set to the difference between the uptake in the control group and the basal uptake, and the uptake of methyl α-D-glucopyranoside at each drug concentration was calculated. The drug concentration, at which 50% uptake of methyl α-D-glucopyranoside was inhibited (IC50 value), was calculated using logit plot. The blanks in the Table are untested.

Assay [3] is described as follows: Test Example 2: effect on urinary glucose excretion. The class given is in vivo. Conditions: overnight fasted male SD rats, 7 weeks of age, 1 mg/kg intravenously (3 mL/kg), urine collected for 24 hours. The protocol: As experimental animals, overnight fasted SD rats (CHARLES RIVER LABORATORIES JAPAN. Inc., Crj:CD(SD(IGS), male, 7 weeks of age, 200-230 g) were used.
Example 10 compound of 2.12 mg was dissolved by adding 636 μL of ethanol and 2544 μL of polyethylene glycol 400. And then the solution was mixed with 3180 μL of saline and sonicated. Example 12 compound of 2.18 mg was dissolved by adding 654 μL of ethanol and 2616 μL of polyethylene glycol 400. And then the solution was mixed with 3270 μL of saline and sonicated. These test compound solutions of 0.33 mg/mL were used for administration.
The body weights of rats were measured and the solution of the test compound was intravenously injected to the tail vein of rats at the dose of 3 mL/kg (1 mg/kg as test compound). Collection of urine was performed for 24 hours after the administration. […]
Frozen samples were thawed and mixed well. According to need, a part of samples was diluted with distilled water and the glucose concentration of these samples was measured with a kit for laboratory test: Glucose CII-Test WAKO (Wako Pure Chemical Industries, Ltd.).
The amounts of urinary glucose excretion per 200 g of body weight were calculated from glucose concentration of urinary samples, dilution factor, urinary volume and body weight using the following equation. […]

Assay [4] is described as follows: Test Example 4: inhibitory effects on blood glucose level increase, liquid meal tolerance test in diabetic rats. Conditions: streptozotocin diabetic rats, 2 mg/kg orally, liquid meal load, mean ± S.E. The class given is in vivo. The protocol:
Rats, aged 8 weeks old, were injected streptozotocin (45 mg/kg) intravenously from tail vain. After 1 week, rats were fasted overnight and then glucose tolerance test (2 g/kg) was performed.
After overnight fasted, the diabetic rats were or ally administered a test compound (2 mg/kg), which was dissolved in distilled water, in the drug-treating group, or distilled water alone in a control group. Immediately after the compound administration, 3 mL/body of liquid meal (No. 038, Control diet, assorted with dextrin and maltose; Oriental Yeast Co., Ltd., prepared for 323 g/L) was loaded or ally. The blood was collected from tail artery immediately before and after administration with the time course, and treated with heparin immediately. The blood was centrifuged, and the plasma was collected and quantified the plasma glucose concentration by glucose oxidase method. The values in the Table are presented as the mean ±S.E.

Assay [5] is described as follows: Test Example 3: effect on urinary glucose excretion. The class given is in vivo. Conditions: overnight fasted male SD rats, 9 weeks of age, 1 mg/kg intravenously (2 mL/kg), urine collected for 24 hours. The protocol: As experimental animals, overnight fasted SD rats (CHARLES RIVER LABORATORIES JAPAN. Inc., Crj:CD(SD)IGS, male, 9 weeks of age, 300-330 g) were used.
Example 346 compound of 2.90 mg was dissolved by adding 29.0 μL of dimethyl sulfoxide and 2320 μL of polyethylene glycol 400. And then, the solution was mixed with 3450 μL of saline. This 0.5 mg/mL solution was used for administration.
Rats were fasted for overnight. The body weights of rats were measured and urinary glucose excretions were calculated as with the Test Example 2 except for intravenously injection to the tail veins of rats at the dose of 2 mL/kg (1 mg/kg as test compound).

As to `COc1ccc(Cc2cn([C@@H]3O[C@H](CO)[C@@H](O)[C@H](O)[C@H]3O)c3cccc(C)c23)cc1` [Example 8], the IC50 in assay [1] was found to be 10 nM; in assay [2], 0.6 nM. In assay [2], `CCc1ccc(Cc2cn([C@@H]3O[C@H](CO)[C@@H](O)[C@H](O)[C@H]3O)c3ccccc23)cc1` [Example 10] displayed an IC50 of 0.5 nM. In addition, in assay [3], the “Amount of urinary excretion of glucose in 24 hours” value (“Amount” for short) amounted to 11.2 mg/200 g body weight. Take `COc1ccc(Cc2cn([C@@H]3O[C@H](CO)[C@@H](O)[C@H](O)[C@H]3O)c3cc(C)ccc23)cc1` [Example 12, 1-(β-D-glucopyranosyl)-3-(4-methoxybenzyl)-6-methyl-1H-indole]: the IC50 was 3200 nM in assay [1] and 0.9 nM in assay [2]. For the same molecule, the “Amount” value in assay [3] was 111.8 mg/200 g body weight.

In turn, `COc1ccc(Cc2cn([C@@H]3O[C@H](CO)[C@@H](O)[C@H](O)[C@H]3O)c3ccccc23)c(F)c1` [Example 15] yielded an IC50 in assay [2] of 11 nM. In the case of `Cc1cccc2c1c(Cc1ccc(OCCCNCCC(N)=O)cc1)cn2[C@@H]1O[C@H](CO)[C@@H](O)[C@H](O)[C@H]1O` [Example 318, 3-[(4-{3-[2-(Carbamoyl)ethylamino]propoxy}phenyl)methyl]-1-(β-D-glucopyranosyl)-4-methyl-1H-indole], the IC50 in assay [1] came out at 122 nM.

Turning to `CCOC(=O)[C@H](CO)NC(=O)CCCc1ccc(Cc2cn([C@@H]3O[C@H](CO)[C@@H](O)[C@H](O)[C@H]3O)c3cccc(C)c23)cc1` [Example 320], the “Plasma glucose concentration 0.5 h” value in assay [4] (0.5 hour after administration) stood at 230 ± 14 mg/dL. Besides, the “Plasma glucose concentration 1 h” value in assay [4] (1 hour after administration) amounted to 312 ± 15 mg/dL. For the same molecule, in assay [4] (pretreatment (0 h)), the “Plasma glucose concentration 0 h” value is given as 133 ± 10 mg/dL. `Cc1cccc2c1c(Cc1ccc(CCCC(=O)NC(C)(C)C(=O)N3CCNCC3)cc1)cn2[C@@H]1O[C@H](CO)[C@@H](O)[C@H](O)[C@H]1O` [Example 329, 1-(β-D-Glucopyranosyl)-3-(4-[3-{1-(piperazin-1-yl-carbonyl)-1-(methyl)ethylcarbamoyl}propyl]phenyl)methyl-4-methyl-1H-indole] yielded an IC50 in assay [1] of 41 nM. This counts as double-digit nanomolar. Take `COc1ccc(Sc2cn([C@@H]3O[C@H](CO)[C@@H](O)[C@H](O)[C@H]3O)c3cc(C)ccc23)cc1` [Example 346, 1-(β-D-Glucopyranosyl)-3-{(4-methoxyphenyl)sulfany}-6-methyl-1H-indole]: in assay [2], the IC50 amounted to 0.4 nM. Further, the “Amount” value in assay [5] is listed as 33.12 mg/200 g body weight.
